Test results from the Bradley open melting point set (2014).
“And” between values parts separate entries of the source, which are not always exact repeats. Equal entries are not always repeated.

Row | melting point | Structure (SMILES)
1 | 121 °C | N#Cc1ccncc1I [4-cyano-3-iodopyridine]
2 | 40 °C | CCN(CC)c1ccc(C=O)cc1 [4-diethylaminobenzaldehyde]
3 | 166 °C | Cc1ccc(/N=N/c2ccc(N(C)C)cc2)cc1 [4-dimethylamino-4'-methylazobenzene]
4 | 170 °C | CN(C)c1ccc(/N=N/c2ccc(N=C=S)cc2)cc1 [4-dimethylaminoazobenzene-4'-isothiocyanate]
5 | 74 °C | CN(C)c1ccc(C=O)cc1 [4-dimethylaminobenzaldehyde]
6 | 135 °C | CCOc1ccc(NC(C)=O)cc1 [4-ethoxyacetanilide]
7 | -5 °C | CCc1ccc(N)cc1 [4-ethylaniline]
8 | 185 °C | OB(O)c1ccc(F)cc1C(F)(F)F [4-fluoro-2-(trifluoromethyl)benzeneboronic acid]
9 | 135 °C | COc1cc(F)ccc1C(=O)O [4-fluoro-2-methoxybenzoic acid]
10 | 30 °C | Cc1cc(O)ccc1F [4-fluoro-3-methylphenol]
11 | 105 °C | O=C(O)COc1ccc(F)cc1 [4-fluorophenoxyacetic acid]
12 | 263 °C | O=Cc1ccc(B(O)O)cc1 [4-formylbenzeneboronic acid]
13 | 142 °C | O=Cc1ccc(O)c([N+](=O)[O-])c1 [4-hydroxy-3-nitrobenzaldehyde]
14 | 183 °C | O=C(O)c1ccc(O)c([N+](=O)[O-])c1 [4-hydroxy-3-nitrobenzoic acid]
15 | -47 °C | CC(=O)CC(C)(C)O [4-hydroxy-4-methyl-2-pentanone]
16 | 128 °C | Cc1cccc2c(O)cc(C(F)(F)F)nc12 [4-hydroxy-8-methyl-2-(trifluoromethyl)quinoline]
17 | 161 °C | NC(=O)c1ccc(O)cc1 [4-hydroxybenzamide]
18 | 214 °C and 215 °C | O=C(O)c1ccc(O)cc1 [4-hydroxybenzoic acid]
19 | 112 °C | OCc1ccc(O)cc1 [4-hydroxybenzyl_alcohol]
20 | 69 °C | Oc1ccc(Nc2ccccc2)cc1 [4-hydroxydiphenylamine]
21 | 203 °C | Oc1ccnc2ccccc12 [4-hydroxyquinoline]

Row | melting point | Structure (SMILES)
22 | 270 °C | O=C(O)c1ccc(I)cc1 [4-iodobenzoic acid]
23 | 73 °C | OCc1ccc(I)cc1 [4-iodobenzyl alcohol]
24 | 53 °C | N#CCc1ccc(I)cc1 [4-iodophenylacetonitrile]
25 | 143 °C | CC(C)c1ccc(B(O)O)cc1 [4-isopropylbenzeneboronic acid]
26 | 119 °C | CC(C)c1ccc(C(=O)O)cc1 [4-isopropylbenzoic acid]
27 | 170 °C | COc1ccc(B(O)O)c(C(F)(F)F)c1 [4-methoxy-2-(trifluoromethyl)benzeneboronic acid]
28 | 92 °C | COc1ccc(N=C=S)c([N+](=O)[O-])c1 [4-methoxy-2-nitrophenyl isothiocyanate]
29 | 215 °C | COc1ccc(B(O)O)cc1C [4-methoxy-3-methylbenzeneboronic acid]
30 | 184 °C | COc1ccc(C(=O)O)cc1 [4-methoxybenzoic acid]
31 | 97 °C | COc1ccc(C(=O)OC(=O)c2ccc(OC)cc2)cc1 [4-methoxybenzoic anhydride]
32 | 59 °C | COc1ccc(C#N)cc1 [4-methoxybenzonitrile]
33 | 62 °C | COc1ccc(C(=O)c2ccccc2)cc1 [4-methoxybenzophenone]
34 | 128 °C | COc1ccc(C(=O)CC#N)cc1 [4-methoxybenzoylacetonitrile]
35 | 124 °C | COc1cc(=O)oc2ccccc12 [4-methoxycoumarin]
36 | 107 °C | COc1ccc(C(O)C(=O)O)cc1 (stereo unspecified) [4-methoxymandelic acid]
37 | 87 °C | COc1ccc(CC(=O)O)cc1 [4-methoxyphenylacetic acid]
38 | 226 °C | Cc1nc(-c2ccccn2)sc1C(=O)O [4-methyl-2-(2-pyridyl)thiazole-5-carboxylic acid]
39 | 246 °C | Cc1nc(-c2cccnc2)sc1C(=O)O [4-methyl-2-(3-pyridyl)thiazole-5-carboxylic acid]
40 | -134 °C | C/C=C\C(C)C [4-methyl-cis-2-pentene]
41 | -141 °C | C/C=C/C(C)C [4-methyl-trans-2-pentene]
42 | -50 °C | COc1ccc(C)cc1 [4-methylanisole]

Row | melting point | Structure (SMILES)
43 | 180 °C and 181 °C | Cc1ccc(C(=O)O)cc1 [4-methylbenzoic acid]
44 | 226 °C | Cc1cc[n+]([O-])cc1C(=O)NN [4-methylpyridine-3-carbohydrazide 1-oxide]
45 | 189 °C | Cc1cc(=O)oc2cc(O)ccc12 [4-methylumbelliferone]
46 | 93 °C | CCCCCCCOc1ccc(C(=O)O)cc1 [4-n-heptyloxybenzoic acid]
47 | 103 °C | CCCCCCCCOc1ccc(C(=O)O)cc1 [4-n-octyloxybenzoic acid]
48 | 24 °C | CCCCCc1ccc(O)cc1 [4-n-pentylphenol]
49 | 166 °C | O=[N+]([O-])c1ccc(O)c2ccccc12 [4-nitro-1-naphthol]
50 | 138 °C | O=[N+]([O-])c1ccc(NS(=O)(=O)c2ccccc2)cc1 [4-nitro-1-phenylsulfonamidobenzene]
51 | 156 °C | Cc1cc([N+](=O)[O-])cc[n+]1[O-] [4-nitro-2-picoline n-oxide]
52 | 92 °C | O=[N+]([O-])c1ccc(CS(=O)(=O)Cl)cc1 [4-nitro-alpha-toluenesulfonyl chloride]
53 | 40 °C | O=[N+]([O-])c1ccc(C(F)(F)F)cc1 [4-nitrobenzotrifluoride]
54 | 73 °C | O=C(Cl)c1ccc([N+](=O)[O-])cc1 [4-nitrobenzoyl chloride]
55 | 94 °C | O=[N+]([O-])c1ccc(CO)cc1 [4-nitrobenzyl alcohol]
56 | 78 °C | CC(=O)Oc1ccc([N+](=O)[O-])cc1 [4-nitrophenyl acetate]
57 | 55 °C | O=[N+]([O-])c1ccc(Oc2ccccc2)cc1 [4-nitrophenyl phenyl ether]
58 | 198 °C | O=C1NC(=O)c2cc([N+](=O)[O-])ccc21 [4-nitrophthalimide] [listing 1 of 2 here]
59 | 202 °C | O=C1NC(=O)c2cc([N+](=O)[O-])ccc21 [4-nitrophthalimide] [listing 2 of 2 here]
60 | 54 °C | c1ccc(-c2csc(-c3cccnc3)n2)cc1 [4-phenyl-2-(3-pyridyl)thiazole]
61 | 83 °C | c1ccc(N=Nc2ccc(Nc3ccccc3)cc2)cc1 [4-phenylazodiphenylamine]
62 | 51 °C | O=C(O)CCCc1ccccc1 [4-phenylbutyric acid]
63 | 186 °C and 184 °C | Cc1cc[n+]([O-])cc1 [4-picoline-N-oxide]

Row | melting point | Structure (SMILES)
64 | 55 °C | CC(C)(C)c1ccc(O)c(O)c1 [4-tert-butylcatechol]
65 | 49 °C | CC(C)(C)C1CCC(=O)CC1 [4-tert-butylcyclohexanone]
66 | 240 °C | O=C1CSC(=S)N1c1ccccc1 [4-thiazolidinone, 3-phenyl-2-thioxo-]
67 | 79 °C | CC1(C)OC(=O)NC1=O [5,5-dimethyloxazolidine-2,4-dione]
68 | 201 °C | Oc1c(Br)cc(Br)c2cccnc12 [5,7-dibromo-8-hydroxyquinoline]
69 | 181 °C | Oc1c(Cl)cc(Cl)c2cccnc12 [5,7-dichloro-8-hydroxyquinoline]
70 | 182 °C | Brc1ccccc1-c1nnn[nH]1 [5-(2-bromophenyl)-1h-tetrazole]
71 | 108 °C | Cc1ccccc1C1C=C(c2ccccc2)N=N1 (stereo unspecified) [5-(2-methylphenyl)-3-phenyl-1H-pyrazole]
72 | 140 °C | Clc1cccc(-c2nnn[nH]2)c1 [5-(3-chlorophenyl)-1h-tetrazole]
73 | 153 °C | c1ccc(Oc2cccc(-c3nnn[nH]3)c2)cc1 [5-(3-phenoxyphenyl)-1h-tetrazole]
74 | 223 °C | O=C(Nc1ccc([N+](=O)[O-])cc1Cl)c1cc(Cl)ccc1O [5-Chloro-N-(2-chloro-4-nitrophenyl)-2-hydroxybenzamide]
75 | 201 °C | CCc1nnc(N)s1 [5-Ethyl-1,3,4-thiadiazol-2-amine]
76 | 96 °C | Cc1ccc2c(c1)no[n+]2[O-] [5-Methylbenzofurazan oxide]
77 | 58 °C | CC(=O)c1ccc2c(c1)CCO2 [5-acetyl-2,3-dihydrobenzo[b]furan]
78 | 221 °C | CC(=O)c1ccc(O)c(C(N)=O)c1 [5-acetylsalicylamide]
79 | 200 °C | NC(=O)c1c(-c2ccccc2)nn(-c2ccccc2)c1N [5-amino-1,3-diphenyl-1H-pyrazole-4-carboxamide]
80 | 188 °C | Nc1ccc2[nH]c(C(F)(F)F)nc2c1 [5-amino-2-(trifluoromethyl)benzimidazole]
81 | 137 °C | N#Cc1cccc2c(N)cccc12 [5-aminonaphthalene-1-carbonitrile]
82 | 157 °C | Nc1cc(Br)cnc1N [5-bromo-2,3-diaminopyridine]
83 | 190 °C | O=C(O)c1ccc(Br)o1 [5-bromo-2-furoic acid]
84 | 46 °C | Brc1ccc2sccc2c1 [5-bromobenzo[b]thiophene]

Row | Structure (SMILES) | melting point
85 | N#Cc1ccc(C=O)cc1 [4-cyanobenzaldehyde] | 102 °C
86 | N#Cc1ccc(O)cc1 [4-hydroxybenzonitrile] | 112 °C
87 | S=C=Nc1ccc(I)cc1 [4-iodophenyl isothiocyanate] | 76 °C
88 | CC(C)c1ccc(O)cc1 [4-isopropylphenol] | 60 °C and 61 °C
89 | CC(=O)CC(C)C [4-methyl-2-pentanone] | -84 °C
90 | Cc1ccc(N)cc1[N+](=O)[O-] [4-methyl-3-nitroaniline] | 77 °C
91 | Cc1ccc([N+](=O)[O-])cc1C [4-nitro-1,2-dimethylbenzene] | 31 °C
92 | Nc1ccc([N+](=O)[O-])cc1 [4-nitroaniline] [listing 1 of 2 here] | 148 °C
93 | Nc1ccc([N+](=O)[O-])cc1 [4-nitroaniline] [listing 2 of 2 here] | 148 °C
94 | O=[N+]([O-])c1ccc(CBr)cc1 [4-nitrobenzyl bromide] | 99 °C
95 | Oc1ccc(-c2ccccc2)cc1 [4-phenylphenol] | 166 °C
96 | C=CCC1(c2ccccc2)C(=O)NC(=O)NC1=O [5-allyl-5-phenylbarbiturate] | 158 °C
